This note sets out measurements from ChEMBL document CHEMBL2034887, “Substituted phenoxypropyl-(R)-2-methylpyrrolidine aminomethyl ketones as histamine-3 receptor inverse agonists” (Bioorg Med Chem Lett, 2012).

Series [1] addresses T1, Histamine H3 receptor (Homo sapiens, UniProt Q9Y5N1). Description: Displacement of [3H]NAMH from human histamine H3 receptor expressed in CHO cells. Format: cell-based. Background: In a radioligand displacement assay an active substance lowers the binding of a labelled ligand.
The nature of series [2]: Ratio of drug level in brain to plasma in rat at 5 mg/kg, po measured after 6 hrs. The format is ADME, organism-based. The conditions noted are these: read-out: BPR. More on the design: dose 5 mg/kg, route oral.
The target of series [3] is Histamine H3 receptor (Rattus norvegicus, UniProt Q9QYN8). Briefly: Displacement of [3H]NAMH from rat histamine H3 receptor expressed in CHO cells. The format is cell-based.
A short description of series [4]: AUC in rat at 5 mg/kg, po. Format: ADME, organism-based. Further details: dose 5 mg/kg, route oral. Particulars: plasma.
Series [5] has as its target CYP2C19 (Homo sapiens, UniProt P33261). Briefly: (§1) Inhibition of CYP2C19. The format is ADME.
Series [6] concerns the target Histamine H4 receptor (Homo sapiens) (UniProt Q9H3N8). Description: Inhibition of human histamine H4 receptor at 10 uM.
Series [7] can be described thus: Half life in mouse liver microsomes. The format is ADME, Microsome. On the technique in general: Liver microsomes are vesicles of endoplasmic reticulum, rich in cytochrome P450 enzymes.
Series [8] deals with Histamine H2 receptor (Homo sapiens) (UniProt P25021). Description: Inhibition of human histamine H2 receptor at 10 uM.
In series [9] the target is CYP2C9 (Homo sapiens, UniProt P11712). Description: (§2) Inhibition of CYP2C9. Format: ADME.
Series [10] concerns Caco-2. Briefly: Permeability across human Caco2 cells. The format is ADME, cell-based. On the technique in general: Caco-2 monolayers are a common model of the intestinal barrier.
Series [11] is described as follows: Half life in dog liver microsomes. The format is ADME, Canis lupus familiaris, Microsome.
Series [12] is described as follows: Half life in monkey liver microsomes. The format is ADME, Macaca mulatta, Microsome. The conditions noted are these: rhesus monkey.
For series [13], the target named is hERG (KCNH2) (Homo sapiens, UniProt Q12809). Briefly: Inhibition of human ERG at 10 uM.
Series [14] can be described thus: Volume of distribution in rat at […], iv. Particulars: in vivo. Format: ADME, organism-based.
The nature of series [15]: Half life in human liver microsomes. The format is ADME, Microsome.
A short description of series [16]: Half life in rat at […], iv. The format is ADME, organism-based. Particulars: in vivo.
The nature of series [17]: Half life in rat liver microsomes. Format: ADME, Microsome.
Series [18] in a line: Clearance in rat at […], iv. Format: ADME, organism-based. The conditions noted are these: in vivo.
The target in series [19] is Histamine H1 receptor (Homo sapiens) (UniProt P35367). Briefly: Inhibition of human histamine H1 receptor at 10 uM.
The target in series [20] is CYP2D6 (Homo sapiens, UniProt P10635). Description: (§3) Inhibition of CYP2D6. Format: ADME.
Series [21] is described as follows: Plasma protein binding in human. Format: ADME, cell-free. Particulars: read-out: PPB.
For series [22], the target named is T2, CYP1A2 (Homo sapiens, UniProt P05177).
T2 sequence (P05177 whole entry): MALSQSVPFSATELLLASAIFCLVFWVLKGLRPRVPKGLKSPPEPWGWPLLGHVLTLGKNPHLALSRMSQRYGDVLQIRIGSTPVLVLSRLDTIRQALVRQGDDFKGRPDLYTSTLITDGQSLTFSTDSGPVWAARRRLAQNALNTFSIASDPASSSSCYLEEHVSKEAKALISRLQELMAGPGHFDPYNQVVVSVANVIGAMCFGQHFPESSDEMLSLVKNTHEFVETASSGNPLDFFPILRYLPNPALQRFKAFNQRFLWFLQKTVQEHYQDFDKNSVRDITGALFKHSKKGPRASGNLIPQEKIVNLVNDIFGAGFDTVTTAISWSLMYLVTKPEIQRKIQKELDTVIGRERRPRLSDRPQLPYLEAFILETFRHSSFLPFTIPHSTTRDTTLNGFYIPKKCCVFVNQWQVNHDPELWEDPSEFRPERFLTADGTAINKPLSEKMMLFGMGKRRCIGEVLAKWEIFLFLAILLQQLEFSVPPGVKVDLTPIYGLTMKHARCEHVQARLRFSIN
Briefly: (§4) Inhibition of CYP1A2. Format: ADME.

Series [23] is described as follows: Plasma protein binding in rat. The format is ADME, cell-free. Particulars: read-out: PPB.
Series [24] concerns the target CYP3A4 (Homo sapiens, UniProt P08684). Description: (§5) Inhibition of CYP3A4. The format is ADME.
The nature of series [25]: Cmax in rat at 5 mg/kg, po. The format is ADME, organism-based. More on the design: dose 5 mg/kg, route oral. Particulars: in vivo.
Series [26] concerns the target Cytochrome P450 2C19 (Homo sapiens, UniProt P33261). The series is described as §1. The format is ADME.
Series [27] has as its target T1, Histamine H3 receptor. Briefly: Inverse agonist activity at human histamine H3 receptor by [35S]-GTPgammaS binding assay. Format: functional.
The target in series [28] is Cytochrome P450 2C9 (Homo sapiens, UniProt P11712). The series is described as §2. The format is ADME.
In series [29] the test system is Rattus norvegicus. Briefly: Inhibition of RAMH-induced dipsogenia in ip dosed rat. Format: functional.
For series [30], the target named is T1, Histamine H3 receptor. Description: Antagonist activity at human histamine H3 receptor assessed as inhibition of [35S]-GTPgammaS binding. The format is functional.
Series [31] is described as follows: Oral bioavailability in rat at 5 mg/kg. Particulars: in vivo. The format is ADME, organism-based.
Series [32] deals with Rattus norvegicus. Briefly: Wake promoting activity in EEG/EMG Sprague-Dawley rat model at 10 to 30 mg/kg, ip measured after 9 hrs. The format is functional, organism-based.
Series [33] has as its target Cytochrome P450 2D6 (Homo sapiens, UniProt P10635). The description is as §3. Format: ADME.
Series [34] concerns the target T3, Cytochrome P450 1A2 (Homo sapiens, UniProt P05177).
T3 sequence (P05177 whole entry): T2 sequence (P05177 whole entry)
Described as §4. The format is ADME.

Series [35] concerns the target Cytochrome P450 3A4 (Homo sapiens, UniProt P08684). Described as §5. The format is ADME.

Calls of active or inactive are those of the source.

T1 sequence (Q9Y5N1 whole entry): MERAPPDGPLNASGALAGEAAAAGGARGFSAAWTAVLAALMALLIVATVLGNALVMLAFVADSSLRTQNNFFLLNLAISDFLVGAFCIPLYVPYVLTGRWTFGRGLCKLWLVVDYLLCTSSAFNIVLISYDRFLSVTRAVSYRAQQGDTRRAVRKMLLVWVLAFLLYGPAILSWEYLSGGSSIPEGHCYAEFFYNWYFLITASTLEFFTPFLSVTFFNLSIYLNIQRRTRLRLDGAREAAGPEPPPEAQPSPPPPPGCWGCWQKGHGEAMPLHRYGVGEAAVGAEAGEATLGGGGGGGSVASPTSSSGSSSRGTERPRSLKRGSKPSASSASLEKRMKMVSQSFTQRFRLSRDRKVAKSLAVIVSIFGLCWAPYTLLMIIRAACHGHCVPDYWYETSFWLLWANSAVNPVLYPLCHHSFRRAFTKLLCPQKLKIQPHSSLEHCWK
Histamine H3 receptor (Rattus norvegicus, UniProt Q9QYN8), sequence (Q9QYN8 whole entry): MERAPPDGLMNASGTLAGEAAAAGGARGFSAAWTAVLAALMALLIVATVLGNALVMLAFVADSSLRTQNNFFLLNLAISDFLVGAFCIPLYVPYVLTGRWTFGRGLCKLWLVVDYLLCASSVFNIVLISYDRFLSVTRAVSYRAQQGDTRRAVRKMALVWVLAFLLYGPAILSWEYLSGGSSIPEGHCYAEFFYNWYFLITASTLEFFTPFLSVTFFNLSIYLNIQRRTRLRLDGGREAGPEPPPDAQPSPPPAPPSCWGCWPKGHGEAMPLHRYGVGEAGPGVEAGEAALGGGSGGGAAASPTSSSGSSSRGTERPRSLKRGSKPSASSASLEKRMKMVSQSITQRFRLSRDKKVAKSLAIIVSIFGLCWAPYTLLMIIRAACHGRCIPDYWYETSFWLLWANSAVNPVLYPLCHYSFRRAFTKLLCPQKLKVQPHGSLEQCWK
Histamine H1 receptor (Homo sapiens), sequence (P35367 whole entry): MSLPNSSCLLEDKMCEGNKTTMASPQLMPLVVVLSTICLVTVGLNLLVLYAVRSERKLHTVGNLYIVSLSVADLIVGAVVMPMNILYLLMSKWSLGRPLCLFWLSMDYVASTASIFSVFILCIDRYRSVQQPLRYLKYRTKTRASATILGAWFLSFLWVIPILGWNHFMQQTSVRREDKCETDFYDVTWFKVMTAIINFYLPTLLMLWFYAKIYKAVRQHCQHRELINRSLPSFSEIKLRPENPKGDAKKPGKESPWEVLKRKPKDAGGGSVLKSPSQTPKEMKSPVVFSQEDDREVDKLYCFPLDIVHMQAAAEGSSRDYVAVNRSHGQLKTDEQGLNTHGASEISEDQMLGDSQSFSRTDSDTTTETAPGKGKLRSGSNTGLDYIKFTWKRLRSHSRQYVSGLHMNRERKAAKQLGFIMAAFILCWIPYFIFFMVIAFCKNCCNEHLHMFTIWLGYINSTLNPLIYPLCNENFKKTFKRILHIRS
Cytochrome P450 3A4, sequence (P08684 whole entry): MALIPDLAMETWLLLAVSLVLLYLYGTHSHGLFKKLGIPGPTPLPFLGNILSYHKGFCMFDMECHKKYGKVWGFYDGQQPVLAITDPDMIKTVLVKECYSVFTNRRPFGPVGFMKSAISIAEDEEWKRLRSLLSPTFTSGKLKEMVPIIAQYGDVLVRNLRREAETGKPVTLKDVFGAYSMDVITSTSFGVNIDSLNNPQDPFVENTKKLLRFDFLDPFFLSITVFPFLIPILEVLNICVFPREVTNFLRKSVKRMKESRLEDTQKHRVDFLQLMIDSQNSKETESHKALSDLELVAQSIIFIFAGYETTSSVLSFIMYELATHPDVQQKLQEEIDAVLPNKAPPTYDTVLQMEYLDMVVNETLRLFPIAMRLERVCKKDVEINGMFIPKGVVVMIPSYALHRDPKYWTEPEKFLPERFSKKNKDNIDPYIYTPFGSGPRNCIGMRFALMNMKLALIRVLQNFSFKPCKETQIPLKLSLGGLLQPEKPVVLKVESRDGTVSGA
CYP3A4, sequence (P08684 whole entry): as above
Histamine H2 receptor (Homo sapiens), sequence (P25021 whole entry): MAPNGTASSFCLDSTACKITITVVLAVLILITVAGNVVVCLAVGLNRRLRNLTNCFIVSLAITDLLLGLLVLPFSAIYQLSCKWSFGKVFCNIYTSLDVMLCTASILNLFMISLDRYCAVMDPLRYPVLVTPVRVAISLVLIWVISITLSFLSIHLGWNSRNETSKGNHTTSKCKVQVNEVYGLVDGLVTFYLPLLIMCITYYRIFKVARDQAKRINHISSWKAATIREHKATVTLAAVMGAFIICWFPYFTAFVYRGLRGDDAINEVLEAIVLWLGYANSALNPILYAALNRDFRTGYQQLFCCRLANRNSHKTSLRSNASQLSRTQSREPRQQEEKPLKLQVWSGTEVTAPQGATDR
CYP2C19, sequence (P33261 whole entry): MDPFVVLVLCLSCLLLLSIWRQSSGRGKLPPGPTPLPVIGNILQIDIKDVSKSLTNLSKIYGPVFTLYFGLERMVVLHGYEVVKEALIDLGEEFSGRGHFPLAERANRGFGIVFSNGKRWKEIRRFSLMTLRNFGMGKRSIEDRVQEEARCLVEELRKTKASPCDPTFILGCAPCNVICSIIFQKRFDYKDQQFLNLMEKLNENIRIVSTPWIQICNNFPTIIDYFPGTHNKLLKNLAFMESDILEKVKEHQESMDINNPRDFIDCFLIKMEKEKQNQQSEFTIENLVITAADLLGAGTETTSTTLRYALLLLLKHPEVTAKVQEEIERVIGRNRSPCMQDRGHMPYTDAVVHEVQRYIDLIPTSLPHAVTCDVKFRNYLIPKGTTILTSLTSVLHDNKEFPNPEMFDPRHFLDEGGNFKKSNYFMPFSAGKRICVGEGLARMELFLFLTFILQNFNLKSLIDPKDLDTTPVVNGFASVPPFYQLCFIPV
Cytochrome P450 2C19, sequence (P33261 whole entry): as above
Histamine H4 receptor (Homo sapiens), sequence (Q9H3N8 whole entry): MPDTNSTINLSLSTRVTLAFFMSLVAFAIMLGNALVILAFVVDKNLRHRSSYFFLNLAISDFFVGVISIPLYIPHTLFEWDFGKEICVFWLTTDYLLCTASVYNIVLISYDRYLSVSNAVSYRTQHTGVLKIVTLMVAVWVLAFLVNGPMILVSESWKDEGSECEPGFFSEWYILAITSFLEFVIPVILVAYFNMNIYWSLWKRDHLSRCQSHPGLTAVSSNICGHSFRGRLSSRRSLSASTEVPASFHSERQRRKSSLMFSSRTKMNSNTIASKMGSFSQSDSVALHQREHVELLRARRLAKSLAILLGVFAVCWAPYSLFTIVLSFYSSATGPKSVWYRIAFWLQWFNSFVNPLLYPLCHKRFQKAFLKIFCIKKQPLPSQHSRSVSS
Cytochrome P450 2D6, sequence (P10635 whole entry): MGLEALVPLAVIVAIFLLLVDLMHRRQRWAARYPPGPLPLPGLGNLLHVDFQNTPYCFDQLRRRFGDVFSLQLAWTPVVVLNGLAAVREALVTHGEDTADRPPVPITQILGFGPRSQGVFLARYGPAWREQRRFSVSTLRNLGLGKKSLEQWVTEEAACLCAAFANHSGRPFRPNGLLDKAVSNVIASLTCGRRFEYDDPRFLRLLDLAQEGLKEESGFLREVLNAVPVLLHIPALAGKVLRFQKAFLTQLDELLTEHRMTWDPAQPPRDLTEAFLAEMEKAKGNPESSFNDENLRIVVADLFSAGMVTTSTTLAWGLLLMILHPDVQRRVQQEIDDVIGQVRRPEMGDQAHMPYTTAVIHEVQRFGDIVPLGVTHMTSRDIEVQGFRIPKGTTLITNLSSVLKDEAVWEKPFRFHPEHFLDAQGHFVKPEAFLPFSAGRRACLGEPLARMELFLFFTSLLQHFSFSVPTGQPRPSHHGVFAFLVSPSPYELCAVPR
CYP2D6, sequence (P10635 whole entry): as above
CYP2C9, sequence (P11712 whole entry): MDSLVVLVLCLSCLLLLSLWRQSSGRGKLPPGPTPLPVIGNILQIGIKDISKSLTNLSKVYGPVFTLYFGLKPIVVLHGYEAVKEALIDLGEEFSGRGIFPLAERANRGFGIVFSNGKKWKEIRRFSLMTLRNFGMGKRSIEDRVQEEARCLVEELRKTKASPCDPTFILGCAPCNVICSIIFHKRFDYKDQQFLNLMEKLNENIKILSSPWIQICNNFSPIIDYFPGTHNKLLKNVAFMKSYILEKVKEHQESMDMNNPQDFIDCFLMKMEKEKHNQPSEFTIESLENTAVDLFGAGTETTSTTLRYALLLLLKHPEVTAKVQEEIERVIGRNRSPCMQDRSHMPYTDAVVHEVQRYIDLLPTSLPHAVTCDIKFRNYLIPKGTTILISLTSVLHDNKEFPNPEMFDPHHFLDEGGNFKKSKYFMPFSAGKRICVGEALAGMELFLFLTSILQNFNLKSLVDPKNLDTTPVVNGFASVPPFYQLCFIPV

One may read the Ki as a measure of affinity in units of concentration, obtained from inhibition or displacement. As for `CC(=O)N1CCN(CC(=O)c2ccc(OCCCN3CCC[C@H]3C)cc2)CC1`, the Ki in series [1] was 2.8 nM; in series [3], 30 nM. The Kp at 6 h in series [2] was < 0.6.
The AUC is the area under the concentration-time curve, a measure of exposure. By IC50 is commonly meant the point on the concentration scale where inhibition reaches its midpoint. Broadly, the inhibition is how much of the control response was suppressed. What is called half-life is the time needed for the level to fall by half in the phase considered. Broadly, the Vd is a proportionality between amount in the body and measured concentration, not a real space. For orientation: clearance means the volume of plasma or blood freed of the substance per unit of time. The Cmax is the peak of the concentration-time curve. For `C[C@@H]1CCCN1CCCOc1ccc(C(=O)CN2CCOCC2)cc1`, the exposure (AUC) in series [4] is 81 ng·h/mL. Besides, the concentration for half-maximal inhibition (IC50) in series [5], in series [9], in series [20], in series [22] and in [24] was > 30 µM each time. In addition, the inhibition in series [6], in series [8] and in series [19] was < 50% in each case. The half-life in series [7] is > 40 min; in series [11], > 40 min; in series [12], > 40 min; in series [15] it was > 40 min; in series [16], 138 min; in series [17], > 40 min. Moreover, the permeability result in [10] was “permeable”. Further, the inhibition at 10 µM in series [13] turned out to be 21%. This compound displayed a distribution volume (Vd) in series [14] of 27 L/kg. For the same compound, the Kp at 6 h in series [2] was found to be 50. The compound also registered a clearance in series [18] of 126 mL/min/kg. The fraction unbound in [21] and in series [23] was > 0.8 throughout. This compound also returned a Cmax in [25] of 17 ng/mL.
`C[C@@H]1CCCN1CCCOc1ccc(C(=O)CN2CCCC(F)(F)C2)cc1`: the Ki is 9 nM in [1] and 48 nM in [3].
One may read the EC50 as the concentration giving half of the maximal effect. As a reminder, the ED50 is the midpoint of the dose-response relation. By Kb is commonly meant the equilibrium dissociation constant of an antagonist, usually derived from a functional assay. As a reminder, the bioavailability is the share of a dose that reaches the circulation, judged against a reference dose that is usually intravenous. In turn, `COC(=O)N1CCN(CC(=O)c2ccc(OCCCN3CCC[C@H]3C)cc2)CC1` showed an AUC in [4] of 619 ng·h/mL. Moreover, the IC50 in series [26], in [28], in [33], in series [34] and in [35] was > 30 µM throughout. In series [27], this compound displayed a concentration for a half-maximal effect (EC50) of 0.9 nM. Moreover, the half-life is > 40 min in series [7]; > 40 min in [11]; > 40 min in [12]; > 40 min in [15]; 156 min in series [16]; > 40 min in series [17]. For the same compound, the ED50 in [29] was determined as 0.54 mg/kg. Also, the inhibition result in series [29] was “Dose-dependent effect”. The Kb in series [30] worked out at 0.4 nM. For the same compound, the values for the Ki in series [1] and in series [3] were 3.2 nM and 19 nM, respectively. The Vd in series [14] worked out at 5.4 L/kg. Also, the bioavailability in series [31] worked out at 22%. In addition, in [32], the result was inactive. Moreover, the Kp at 6 h in series [2] was 4.3. This compound also displayed a clearance in series [18] of 24 mL/min/kg. This compound yielded a maximum concentration (Cmax) in [25] of 128 ng/mL.
As to `C[C@@H]1CCCN1CCCOc1ccc(C(=O)CN2CCN(C(=O)c3ccco3)CC2)cc1`, the Ki in series [1] is 2 nM; in [3] it was 16 nM. Besides, the Kp at 6 h in series [2] was < 0.6.
Consider `CC(C)COC(=O)N1CCN(CC(=O)c2ccc(OCCCN3CCC[C@H]3C)cc2)CC1`, for which the Ki in series [1] is 4.6 nM; in series [3] it was 12 nM.
As to `C[C@@H]1CCCN1CCCOc1ccc(C(=O)CN2CCN(S(C)(=O)=O)CC2)cc1`, the Ki was 3.4 nM in series [1] and 26 nM in [3]. Also, in series [2], the Kp at 6 h is < 0.6.
For `C[C@@H]1CCCN1CCCOc1ccc(C(=O)CN2CCN(C(=O)C(F)(F)F)CC2)cc1`, the results for the Ki in [1] and in [3] were 2.1 nM and 17 nM, respectively.
In the case of `C[C@@H]1CCCN1CCCOc1ccc(C(=O)CN2CCN(C(=O)c3cccn3C)CC2)cc1`, the figures for the Ki in [1] and in series [3] were 0.9 nM and 9.4 nM, respectively. In addition, the Kp at 6 h in series [2] is < 0.6.
On to `C[C@@H]1CCCN1CCCOc1ccc(C(=O)CN2CCN(C(=O)Oc3ccc(F)cc3)CC2)cc1`, for which the values for the Ki in series [1] and in series [3] were 3 nM and 3.7 nM, respectively.
